Results reported in patent US20240324594A1, “Method for Controlling Diamide Resistant Pests and Compounds Therefor” (priority 2021, published 2024).

Test system: Resistant Plutella xylostella R1 (G4946E resistance mutation)
Assay: Resistant Plutella xylostella R1 (Diamond back moth) larvicide L3, feeding/contact
Assay type: in vivo
Settings: CTPR used as standard
Experimental: Resistant Plutella xylostella R1 (Diamond back moth) larvicide L3, feeding/contact Chinese cabbage plants were sprayed with diluted test solutions in an application chamber. Cut off leaves were placed into petri dishes with wetted filter paper and infested 1 day after application with 10 L3 multi-resistant Plutella xylostella larvae having the G4946E resistance mutation. Samples were assessed 4 days after infestation for mortality and growth regulation. CTPR was used as standard and a resistance factor of 146 was obtained for this strain.
Plutella xylostella resistant strain R1 originally collected from Taiwan in 2012 that carries the RyR mutation G4946E conferring resistance to diamides. The strain is reared on cabbage plants (Brassica oleracea) and selected approximately every two weeks with chlorantraniliprole.

SMILES	resistance factor obtained for strain R1
CNC(=O)c1cc(Cl)cc(C)c1NC(=O)c1cc(Br)nn1-c1ncccc1Cl [CTPR, chlorantraniliprole]	146

Test system: Resistant Plutella xylostella R4 (RyR mutation G4946E)
Assay: Resistant Plutella xylostella R4 (Diamond back moth) larvicide L1, feeding/contact
Assay type: in vivo
Settings: CTPR used as standard
Experimental: Resistant Plutella xylostella R4 (Diamond back moth) larvicide L1, feeding/contact 24-well microtiter plates with artificial diet were treated with aqueous test solutions prepared from 10,000 ppm DMSO stock solutions by pipetting. After drying, around 30 Plutella eggs were pipetted through a plastic stencil onto a gel blotting paper and the plate was closed with it. The samples were assessed for mortality in comparison to untreated samples 8 days after infestation. CTPR was used as standard and a resistance factor of 242 was obtained for this strain
Plutella xylostella resistant strain R4 originated in the lab in 2021 from crossing the R1 strain with a lab-reared susceptible P. xylostella strain (SUS). R4 can be reared and tested on artificial diet and also carries the RyR mutation G4946E conferring resistance to diamides. The strain is selected approximately every two weeks with chlorantraniliprole.

SMILES	resistance factor obtained for strain R4
CNC(=O)c1cc(Cl)cc(C)c1NC(=O)c1cc(Br)nn1-c1ncccc1Cl [CTPR, chlorantraniliprole]	242

Test system: Plutella xylostella (Diamond back moth) ryanodine receptor, containing the G4946E resistance mutation
Assay: In vitro calcium fluorescence assay (Fluo-8 NW, FDSS) in human embryonic kidney cells expressing the ryanodine receptor
Assay type: cell-based
Settings: HEK cells expressing P. xylostella RyR G4946E; EC50 normalized against in-assay reference cyantraniliprole; ratio <=1 means equally or more active
Experimental: Human embryonic kidney cells expressing the Plutella xylostella (Diamond back moth) ryanodine receptor, containing the G4946E resistance mutation, are loaded with Fluo-8 No Wash (NW) calcium-sensitive dye which responds by fluorescence to a change in intracellular calcium (e.g. stimulated by activation of ryanodine receptor). Test compounds are added in 10 rates to a 384-well plate containing dye-loaded cells and the fluorescent signal is measured using the Hamamatsu FDSS (Functional Drug Screening system). Dose-response curves are plotted to estimate the EC50. EC50 are normalized against an in-assay reference standard (cyantraniliprole) to address inter-assay variability. The ratio for a given compound is then obtained by the following formula: REC50=EC50 (compound)/EC50 (cyantraniliprole).

SMILES	REC50 = EC50 (compound)/EC50 (cyantraniliprole)
CNC(=O)c1c(NC(=O)c2cc(Cn3ncc(C(F)(F)F)n3)nn2-c2ncccc2Cl)c(C)cc2c1OC(F)(F)O2 [2-(3-chloro-2-pyridyl)-N-[2,2-difluoro-6-methyl-4-(methylcarbamoyl)-1,3-benzodioxol-5-yl]-5-[[4-(trifluoromethyl)triazol-2-yl]methyl]pyrazole-3-carboxamide]	6.26
Cc1cc2c(c(C(=O)NC(C)C)c1NC(=O)c1cc(C(F)(F)F)nn1-c1ncccc1Cl)OC(F)(F)O2 [2-(3-chloro-2-pyridyl)-N-[2,2-difluoro-4-(isopropylcarbamoyl)-6-methyl-1,3-benzodioxol-5-yl]-5-(trifluoromethyl)pyrazole-3-carboxamide]	7.27
Cc1cc2c(c(C(N)=O)c1NC(=O)c1cc(C(F)(F)F)nn1-c1ncccc1Cl)OC(F)(F)O2 [Compound P19, N-(4-carbamoyl-2,2-difluoro-6-methyl-1,3-benzodioxol-5-yl)-2-(3-chloro-2-pyridyl)-5-(trifluoromethyl)pyrazole-3-carboxamide]	0.50
Cc1cc2c(c(C(N)=O)c1NC(=O)c1cc(Cn3ncc(C(F)(F)F)n3)nn1-c1ncccc1Cl)OC(F)(F)O2 [Compound P21, N-(4-carbamoyl-2,2-difluoro-6-methyl-1,3-benzodioxol-5-yl)-2-(3-chloro-2-pyridyl)-5-[[4-(trifluoromethyl)triazol-2-yl]methyl]pyrazole-3-carboxamide]	0.55
CNC(=O)c1c(NC(=O)c2cc(C(F)(F)F)nn2-c2ncccc2Cl)c(C)cc2c1OC(F)(F)O2 [2-(3-chloro-2-pyridyl)-N-[2,2-difluoro-6-methyl-4-(methylcarbamoyl)-1,3-benzodioxol-5-yl]-5-(trifluoromethyl)pyrazole-3-carboxamide]	4.65
Cc1cc2c(c(C(N)=O)c1NC(=O)c1cc(Cn3nnc(C(F)(F)F)n3)nn1-c1ncccc1Cl)OC(F)(F)O2 [Compound P24, N-(4-carbamoyl-2,2-difluoro-6-methyl-1,3-benzodioxol-5-yl)-2-(3-chloro-2-pyridyl)-5-[[5-(trifluoromethyl)tetrazol-2-yl]methyl]pyrazole-3-carboxamide]	0.34
CNC(=O)c1c(NC(=O)c2cc(Cn3cc(C(F)(F)F)nn3)nn2-c2ncccc2Cl)c(C)cc2c1OC(F)(F)O2 [2-(3-chloro-2-pyridyl)-N-[2,2-difluoro-6-methyl-4-(methylcarbamoyl)-1,3-benzodioxol-5-yl]-5-[[4-(trifluoromethyl)triazol-1-yl]methyl]pyrazole-3-carboxamide]	2.55
Cc1cc2c(c(C(N)=O)c1NC(=O)c1cc(Cn3cc(C(F)(F)F)nn3)nn1-c1ncccc1Cl)OC(F)(F)O2 [Compound P22, N-(4-carbamoyl-2,2-difluoro-6-methyl-1,3-benzodioxol-5-yl)-2-(3-chloro-2-pyridyl)-5-[[4-(trifluoromethyl)triazol-1-yl]methyl]pyrazole-3-carboxamide]	0.91
CNC(=O)c1c(NC(=O)c2cc(Cn3nnc(C(F)(F)F)n3)nn2-c2ncccc2Cl)c(C)cc2c1OC(F)(F)O2 [2-(3-chloro-2-pyridyl)-N-[2,2-difluoro-6-methyl-4-(methylcarbamoyl)-1,3-benzodioxol-5-yl]-5-[[5-(trifluoromethyl)tetrazol-2-yl]methyl]pyrazole-3-carboxamide]	5.77

Test system: not given
Assay: not given
Settings: not given

melting point	SMILES
147.5 to 161.2 °C	Cc1cc2nn[nH]c2c(C(N)=O)c1NC(=O)c1cc(OC(F)F)nn1-c1ncccc1Cl
240 to 245 °C	Cc1cc2c(c(C(N)=O)c1NC(=O)c1cc(OCC(F)(F)F)nn1-c1ncccc1Cl)OC(F)(F)O2
> 250 °C	Cc1nc2cc(C)c(NC(=O)c3cc(Br)nn3-c3ncccc3Cl)c(C(N)=O)c2o1
233 to 240 °C	Cc1cc2cn[nH]c2c(C(N)=O)c1NC(=O)c1cc(Cn2nnc(C(F)(F)F)n2)nn1-c1ncccc1Cl
142.2 to 160.3 °C	Cc1cc2nn[nH]c2c(C(N)=O)c1NC(=O)c1cc(OCC(F)(F)F)nn1-c1ncccc1Cl
